Earlier results as cited in patent US20030232019A1, “Inhalable formulations for sustained release” (Advanced Inhalation Research, Inc., priority 2002, published 2003).

Details: healthy volunteers after inhalation

insulin
time to half-maximal action (glucose infusion rate): about 30 minutes
